We go through two compounds from publication PMC9220351, “Evaluation of a Conformationally Constrained Indole Carboxamide as a Potential Efflux Pump Inhibitor in Pseudomonas aeruginosa” (Antibiotics, 2022).

Data set [1] deals with P. aeruginosa K1455 (mexAB-oprM overexpressed). Put plainly: microbe, parasite or virus in culture. It counts as cell-based, Pseudomonas aeruginosa. The conditions noted are these: Pseudomonas aeruginosa, read-out: MICs K1455 (↑mexAB-oprM). The source says: P. aeruginosa ATCC 27853 was obtained from the American Type Culture Collection (ATCC; Manassas, VA, USA). P. aeruginosa multidrug-resistant isolates were obtained from the CDC and FDA Antibiotic Resistance Isolate Bank (Atlanta, GA, USA). P. aeruginosa DA7232 (gyrA-T83I, parC-S80L) was a kind gift from Prof. Dan I. Andersson, Uppsala University, Uppsala, Sweden, and has been characterized elsewhere. P. aeruginosa strains K767 (WT), K1455 (mexAB-oprM overexpressed), K2415 (mexXY-oprM overexpressed), and K3698 (oprM∆) were obtained from Prof. Keith Poole, Queen’s University, Kingston, Ontario, Canada and have been characterized elsewhere. Bacterial cells were grown in cation-adjusted Mueller Hinton (CAMH) media, brain heart infusion broth (BHI), or tryptic soy agar (TSA) plates were all obtained from Becton, Dickinson, and Company (BD; Franklin Lakes, NJ, USA). Aztreonam, ceftazidime, moxifloxacin, levofloxacin, minocycline, tigecycline, chloramphenicol, nitrocefin, and imipenem were purchased from TOKU-E (Bellingham, WA, USA). Azithromycin was purchased from Tokyo Chemical Industry (Portland, OR, USA). Cotrimoxazole was purchased from Toronto Research Chemicals (Toronto, ON, Canada). Doxycycline and polymyxin B were purchased from Sigma-Aldrich (St. Louis, MO, USA). Ethidium bromide (EtBr) and glucose were purchased from VWR (Radnor, PA, USA). MC-04,124 and TXA01182 were synthesized at TAXIS Pharmaceuticals. Carbonyl cyanide 3-chlorophenylhydrazone (CCCP) was purchased from Enzo Life Sciences (Farmingdale, NY, USA). DiOC2 (3) and propidium iodide were obtained from Thermo Fisher Scientific (Waltham, MA, USA).
MIC assays were performed as described previously.

For data set [2], the system named is P. aeruginosa ATCC 27853. Put plainly: Time-kill studies. It counts as cell-based, Pseudomonas aeruginosa. The conditions noted are these: highest concentration tested. The method, then: Time-kill studies were carried out as described previously with the following changes.
In data set [3] the target is CYP2C19 (Homo sapiens, UniProt P33261). Nature of the data set: CYP inhibition. The data set is classed as in vitro ADME. The note with it: read-out: CYP Inhibition IC50, CYP 2C19.
Sequence of CYP2C19 (P33261 whole entry): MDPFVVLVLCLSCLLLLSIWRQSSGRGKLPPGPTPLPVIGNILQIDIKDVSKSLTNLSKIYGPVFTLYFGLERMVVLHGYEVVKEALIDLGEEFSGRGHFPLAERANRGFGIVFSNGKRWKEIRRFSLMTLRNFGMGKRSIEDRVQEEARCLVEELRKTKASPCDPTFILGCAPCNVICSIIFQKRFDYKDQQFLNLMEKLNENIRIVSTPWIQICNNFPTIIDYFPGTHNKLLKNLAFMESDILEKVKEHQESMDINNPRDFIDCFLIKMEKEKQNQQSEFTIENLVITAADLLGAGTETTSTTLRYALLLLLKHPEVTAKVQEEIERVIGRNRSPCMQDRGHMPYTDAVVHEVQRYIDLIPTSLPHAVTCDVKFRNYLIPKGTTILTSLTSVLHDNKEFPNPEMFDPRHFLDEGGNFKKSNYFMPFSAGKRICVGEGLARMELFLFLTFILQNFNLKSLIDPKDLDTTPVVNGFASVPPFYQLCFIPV
The nature of data set [4]: Metabolic stability in human liver microsomes. It counts as in vitro ADME. The method, then:
The metabolic stability of TXA09155 was determined in human, mouse, and rat liver microsomes by Eurofins (St. Charles, MO, USA) using the substrate depletion method (in vitro half-life (t1/2) method). Quantification was performed by LC/MS/MS. In this assay, depletion of the parent compound is measured over time to determine the compound’s in vitro t1/2 and hepatic extraction ratios (ER). This is used to predict metabolic clearance. […] This assay utilizes electrophysiology measurements on the electric current passing through the hERG channel heterologously expressed in a stable CHO cell line. Channels are open by a hERG-specific voltage protocol, and the compound effects are directly characterized by their block of the hERG current. The assay is performed on an automated platform, Q-Patch.

The target of data set [5] is CYP2C9 (Homo sapiens, UniProt P11712). Put plainly: CYP inhibition. It counts as in vitro ADME. The conditions noted are these: read-out: CYP Inhibition IC50, CYP 2C9.
Sequence of CYP2C9 (P11712 whole entry): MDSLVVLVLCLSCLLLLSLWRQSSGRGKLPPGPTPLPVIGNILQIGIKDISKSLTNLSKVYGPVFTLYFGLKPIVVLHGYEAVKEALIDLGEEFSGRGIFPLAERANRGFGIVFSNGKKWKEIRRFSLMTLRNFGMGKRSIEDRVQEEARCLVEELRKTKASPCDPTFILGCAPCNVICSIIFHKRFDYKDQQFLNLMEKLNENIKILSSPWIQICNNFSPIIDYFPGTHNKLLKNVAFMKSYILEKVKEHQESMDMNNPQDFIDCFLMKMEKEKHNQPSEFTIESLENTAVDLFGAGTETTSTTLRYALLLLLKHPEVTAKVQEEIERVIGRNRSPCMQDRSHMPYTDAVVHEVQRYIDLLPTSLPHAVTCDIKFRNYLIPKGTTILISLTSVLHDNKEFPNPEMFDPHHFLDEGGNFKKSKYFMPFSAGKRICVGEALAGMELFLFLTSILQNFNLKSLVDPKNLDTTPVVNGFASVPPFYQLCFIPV
Data set [6] concerns the target CYP3A4 (Homo sapiens, UniProt P08684). Nature of the data set: CYP inhibition. The data set is classed as in vitro ADME. The note with it: read-out: CYP Inhibition IC50, CYP 3A4.
The nature of data set [7]: Solubility at pH 7.4. The data set is classed as physicochemical. The note with it: pH 7.4, aqueous buffer.
In data set [8] the test system is P. aeruginosa DA7232. Put plainly: Levofloxacin accumulation assay. The conditions noted are these: levofloxacin 64 μg/mL; compound 1/2, 1/4th, 1/8th MIC. It counts as cell-based, Pseudomonas aeruginosa. On the procedure:
Similar assays have been described elsewhere with the same purpose.
The treated bacterial culture samples were incubated on ice for 15 min, centrifuged, washed with 1X PBS (pH 7.4), and then resuspended in 1 mL of glycine-HCl buffer (pH 3.0) overnight, followed by centrifugation. The fluorescence of 100 μL of supernatant was read at 490 nm following a 355 nm excitation in a SpectraMax iD5 spectrophotometer (Molecular Devices, San Jose, CA, USA).

Data set [9] concerns P. aeruginosa ATCC 27853 inner membrane potential. Nature of the data set: DiOC2 (3) membrane polarization assay. The data set is classed as cell-based, Pseudomonas aeruginosa. The note with it: 20 to 0.01 μM. The method, then:
RND efflux pumps couple the influx of protons from the proton gradient across the inner membrane to the efflux of drugs and other molecules. […] The effect of TXA09155 on the proton gradient of P. aeruginosa was assessed with a fluorescence-based 3,3′-diethyloxacarbocyanine iodide [DiOC2 (3)] assay that was developed to measure membrane potential changes in Gram-negative bacteria. DiOC2 (3) is a positively charged fluorescent dye that accumulates within cells in a charge-dependent manner, shifting its fluorescence spectrum from green to red at high concentrations due to concentration-dependent dye stacking. […] Azithromycin and CCCP were used as […] controls, respectively.
P. aeruginosa membrane polarization assays were conducted as described previously using strain ATCC 27853. […] DiOC2 (3) fluorescence was recorded in a microplate reader using 450 nm excitation and 670 nm emission (for red fluorescence). Background correction for each concentration of each compound was obtained from reading the fluorescence of compounds in the resuspension buffer without cells. After background correction, fluorescence was normalized to that of the vehicle (DMSO) only. After a 30 min incubation at 37 °C, DiOC2 (3) fluorescence was recorded using a SpectraMax iD5 spectrophotometer (Molecular Devices, San Jose, CA, USA) following excitation at 450 nm. […]

Values after ≈ are worked out from the molar mass of the structure shown.

Sequence of CYP3A4 (P08684 whole entry): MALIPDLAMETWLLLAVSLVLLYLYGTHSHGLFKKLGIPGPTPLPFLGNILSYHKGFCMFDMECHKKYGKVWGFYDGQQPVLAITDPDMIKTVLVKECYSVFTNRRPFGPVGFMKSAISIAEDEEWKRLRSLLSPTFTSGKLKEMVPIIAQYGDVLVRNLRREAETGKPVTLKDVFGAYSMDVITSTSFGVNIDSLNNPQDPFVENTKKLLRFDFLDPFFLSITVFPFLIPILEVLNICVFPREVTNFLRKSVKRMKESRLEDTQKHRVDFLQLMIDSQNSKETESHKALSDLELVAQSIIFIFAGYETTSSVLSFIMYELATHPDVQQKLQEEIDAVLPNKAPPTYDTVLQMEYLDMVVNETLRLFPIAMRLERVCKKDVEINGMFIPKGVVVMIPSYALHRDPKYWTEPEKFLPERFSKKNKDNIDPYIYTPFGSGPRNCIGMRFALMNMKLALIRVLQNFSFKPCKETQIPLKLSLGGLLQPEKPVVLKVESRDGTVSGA

Regarding `C[C@H]1COc2c(N3CCN(C)CC3)c(F)cc3c(=O)c(C(=O)O)cn1c23` [Levofloxacin], the MIC in data set [1] worked out at 4 µg/mL (≈ 11.1 µM).
By IC50 is commonly meant the concentration that inhibits the measured activity by half. Broadly, the solubility is the dissolved amount per volume that the medium holds. Regarding `Cl.NC[C@@H]1CN[C@H](CNC(=O)c2cc3ccc(-c4ccc(F)cc4)cc3[nH]2)C1` [TXA09155, N-(((2S,4R)-4-(aminomethyl)pyrrolidine-2-yl)methyl)-6-(4-fluorophenyl)-1H-indole-2-carboxamide hydrochloride salt], the “effect on growth, compound alone” value in [2] is “did not affect the growth”. For the same compound, the figures for the IC50 in [3], in data set [5] and in [6] were over 100 µM, over 100 µM and 28.5 µM, respectively. Moreover, the “HLM and RLM Metabolic Stability (HLM)” value in data set [4] is over 60%. In data set [7], this compound had a solubility of over 155 µM. Also, in data set [8], the “accumulation of levofloxacin inside P. aeruginosa” value is recorded as “concentration-dependent manner”. Further, in data set [9], the membrane depolarization result is given as “did not lead to membrane depolarization”.
